Holding throughout (format): biochemical
The target of assay [1] is T1, WNV NS2B/NS3pro (West Nile virus, UniProt Q9Q6P4). Briefly: In vitro WNV NS2B/NS3pro protease inhibition assay. The note with it: screened at 25 μM.
The target of the next assay is DENV2 NS2B/NS3pro (Dengue virus type 2, UniProt P14340). Nature of the assay: In vitro DENV2 NS2B/NS3pro protease inhibition assay. The following applies: screened at 25 μM.
The target in the next assay is Dengue virus protease (Dengue virus type 2, UniProt P14340). Briefly: Kinetics analysis of DENV NS2B/NS3pro inhibition.
Assay [2] addresses T1, WNV NS2B/NS3pro. Briefly: Kinetics analysis of WNV NS2B/NS3pro inhibition. The note with it: for kcat of tetra-peptide substrate: 37 °C, WNV NS2B/NS3pro 28 nM.

T1 sequence (Q9Q6P4 1506-1683): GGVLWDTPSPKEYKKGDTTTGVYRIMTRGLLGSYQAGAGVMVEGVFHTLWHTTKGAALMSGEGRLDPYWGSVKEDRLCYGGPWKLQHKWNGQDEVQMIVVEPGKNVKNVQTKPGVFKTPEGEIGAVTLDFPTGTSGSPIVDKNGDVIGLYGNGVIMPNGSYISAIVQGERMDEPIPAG
Sequence of Dengue virus protease (P14340 1476-1653): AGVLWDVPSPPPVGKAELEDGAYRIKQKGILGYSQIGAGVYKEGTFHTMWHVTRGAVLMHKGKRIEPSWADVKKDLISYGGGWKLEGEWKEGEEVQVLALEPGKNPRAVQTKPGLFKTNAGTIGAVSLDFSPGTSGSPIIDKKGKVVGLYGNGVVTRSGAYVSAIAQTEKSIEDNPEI
Sequence of DENV2 NS2B/NS3pro (P14340 1476-1653): as above

Consider `O=C(NCc1cn(CSc2ccccc2)nn1)Nc1ccc(C(=O)Nc2ccc(Oc3ccccc3)cc2)cc1` [Compound 7a], for which the “activity against WNV NS2B/NS3pro (screen)” value at WNV NS2B/NS3pro [1] is “inactive”. The “activity against DENV NS2B/NS3pro (screen)” value at DENV2 NS2B/NS3pro is “inactive”.

For the compound `O=C(NCc1cn(Cc2ccc(F)cc2)nn1)Nc1ccc(C(=O)Nc2ccc(Oc3ccccc3)cc2)cc1` [Compound 7n], the Ki on Dengue virus protease amounted to 8.77 µM; on WNV NS2B/NS3pro [2] it was 5.55 µM. For the same compound, the “mode of inhibition of Dengue virus protease” value on Dengue virus protease (from kinetics data) is listed as “competitive”. Moreover, the “kcat of tetra-peptide substrate” value on WNV NS2B/NS3pro [2] ([7n] = 1 μM) is 0.059 ± 0.0014 s⁻¹; on WNV NS2B/NS3pro [2] ([7n] = 3 μM), 0.062 ± 0.0018 s⁻¹; on WNV NS2B/NS3pro [2] ([7n] = 5 μM), 0.055 ± 0.0020 s⁻¹. In addition, the “mode of inhibition of West Nile virus protease” value on WNV NS2B/NS3pro [2] (from kinetics data) is recorded as “competitive”.

As to `O=C(NCc1cn(Cc2ccccc2)nn1)Nc1cccc(C(=O)Nc2cccc(Oc3ccccc3)c2)c1` [Compound 8f], the “activity against WNV NS2B/NS3pro (screen)” value on WNV NS2B/NS3pro [1] was “inactive”. At DENV2 NS2B/NS3pro, the “activity against DENV NS2B/NS3pro (screen)” value is “inactive”.

A word on the Ki: it is the equilibrium dissociation constant of an inhibitor or competing ligand from its target.

These data come from publication PMC3563422 (Bioorganic & medicinal chemistry, 2012).
